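Values below derive from 48-hour exposures of cells grown in 96-well plates, with endpoints linearly interpolated between the two concentrations bracketing the appropriate inhibition level. The concentration for 50% growth inhibition is given as GI50. TGI: total growth inhibition.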 Where a SMILES comes first, the peptide text is derived from it. Bridges are numbered along the chain shown (N, C = ends). [ ]: non-standard residue; d: D form. The star is where a group is joined. Phe(3,5-F2) = N[C@@H](Cc1cc(F)cc(F)c1)C(=O)O; Pro(4R-Me) = C[C@H]1CN[C@H](C(=O)O)C1; aThr = C[C@H](O)[C@H](N)C(=O)O; Pip = O=C(O)[C@@H]1CCCCN1; X7 = CCC/C=C/C=C/C(=O)*
Columns and labels:
Experiment in all cases: inhibition of tumour cell growth, NCI panel, 48 h
SNB-75 CNS = test system: SNB-75 CNS
A498 renal = test system: A498 renal
M14 melanoma = test system: M14 melanoma
786-0 renal = test system: 786-0 renal
MDA-MB-231 breast = test system: MDA-MB-231 breast
NCI-H460 lung = test system: NCI-H460 lung
HOP-62 NSCLC = test system: HOP-62 NSCLC
COLO 205 colon = test system: COLO 205 colon
CAKI-1 renal = test system: CAKI-1 renal
ACHN renal = test system: ACHN renal
NCI-H23 lung = test system: NCI-H23 lung
HT29 colon = test system: HT29 colon
OVCAR-5 ovarian = test system: OVCAR-5 ovarian
HCC-2998 colon = test system: HCC-2998 colon
SN12C renal = test system: SN12C renal
KM12 colon = test system: KM12 colon
IGROV1 ovarian = test system: IGROV1 ovarian
SF-539 CNS = test system: SF-539 CNS
SK-OV-3 ovarian = test system: SK-OV-3 ovarian
RXF 393 renal = test system: RXF 393 renal
EKVX NSCLC = test system: EKVX NSCLC
NCI/ADR-RES ovarian = test system: NCI/ADR-RES ovarian
T-47D breast = test system: T-47D breast
A549 NSCLC = test system: A549 NSCLC
SK-MEL-2 melanoma = test system: SK-MEL-2 melanoma
OVCAR-4 ovarian = test system: OVCAR-4 ovarian
NCI-H522 lung = test system: NCI-H522 lung
HS 578T breast = test system: HS 578T breast
BT-549 breast = test system: BT-549 breast
U251 CNS = test system: U251 CNS
OVCAR-3 ovarian = test system: OVCAR-3 ovarian
SF-268 CNS = test system: SF-268 CNS
MCF7 breast = test system: MCF7 breast
DU-145 prostate = test system: DU-145 prostate
MDA-MB-435 = test system: MDA-MB-435
HL-60(TB) leukemia = test system: HL-60(TB) leukemia
HCT-15 colon = test system: HCT-15 colon
OVCAR-8 ovarian = test system: OVCAR-8 ovarian
SK-MEL-5 melanoma = test system: SK-MEL-5 melanoma
TK-10 renal = test system: TK-10 renal
PC-3 prostate = test system: PC-3 prostate
MOLT-4 leukemia = test system: MOLT-4 leukemia
LOX IMVI melanoma = test system: LOX IMVI melanoma
SK-MEL-28 melanoma = test system: SK-MEL-28 melanoma
HOP-92 NSCLC = test system: HOP-92 NSCLC
SW-620 colon = test system: SW-620 colon
UO-31 renal = test system: UO-31 renal
K-562 leukemia = test system: K-562 leukemia
SNB-19 CNS = test system: SNB-19 CNS
UACC-62 melanoma = test system: UACC-62 melanoma
HCT-116 colon = test system: HCT-116 colon
RPMI-8226 leukemia = test system: RPMI-8226 leukemia
MALME-3M melanoma = test system: MALME-3M melanoma
SR leukemia = test system: SR leukemia
UACC-257 melanoma = test system: UACC-257 melanoma
SF-295 CNS = test system: SF-295 CNS
CCRF-CEM leukemia = test system: CCRF-CEM leukemia
NCI-H226 lung = test system: NCI-H226 lung

Structure (SMILES): CCC/C=C/C=C/C(=O)N[C@@H](Cc1cc(F)cc(F)c1)C(=O)N[C@@H]1C(=O)N2CCC[C@H]2C(=O)N2CCCC[C@H]2C(=O)N[C@@H](C)C(=O)N2C[C@H](C)C[C@H]2C(=O)O[C@H]1C (X7-[Phe(3,5-F2)][aThr]P[Pip]A[Pro(4R-Me)]; ester 2-C)
- GI50 (SNB-75 CNS): 313 nM
- TGI (SNB-75 CNS): 12700 nM
- GI50 (A498 renal): 2430 nM
- TGI (A498 renal): 28400 nM
- GI50 (M14 melanoma): 461 nM
- TGI (M14 melanoma): 5230 nM
- GI50 (786-0 renal): 842 nM
- TGI (786-0 renal): 31000 nM
- GI50 (MDA-MB-231 breast): 409 nM
- TGI (MDA-MB-231 breast): 3360 nM
- GI50 (NCI-H460 lung): 500 nM
- TGI (NCI-H460 lung): 14100 nM
- GI50 (HOP-62 NSCLC): 516 nM
- TGI (HOP-62 NSCLC): 16900 nM
- GI50 (COLO 205 colon): 286 nM
- TGI (COLO 205 colon): 850 nM
- GI50 (CAKI-1 renal): 415 nM
- TGI (CAKI-1 renal): 12500 nM
- GI50 (ACHN renal): 1120 nM
- TGI (ACHN renal): 28700 nM
- GI50 (NCI-H23 lung): 389 nM
- TGI (NCI-H23 lung): 13400 nM
- GI50 (HT29 colon): 586 nM
- TGI (HT29 colon): 4160 nM
- GI50 (OVCAR-5 ovarian): 583 nM
- TGI (OVCAR-5 ovarian): 6130 nM
- GI50 (HCC-2998 colon): 463 nM
- TGI (HCC-2998 colon): 4930 nM
- GI50 (SN12C renal): 419 nM
- TGI (SN12C renal): 15500 nM
- GI50 (KM12 colon): 1810 nM
- TGI (KM12 colon): 29000 nM
- GI50 (IGROV1 ovarian): 1780 nM
- TGI (IGROV1 ovarian): 23700 nM
- GI50 (SF-539 CNS): 744 nM
- TGI (SF-539 CNS): 13500 nM
- GI50 (SK-OV-3 ovarian): 499 nM
- TGI (SK-OV-3 ovarian): 12800 nM
- GI50 (RXF 393 renal): 1500 nM
- TGI (RXF 393 renal): 8290 nM
- GI50 (EKVX NSCLC): 491 nM
- TGI (EKVX NSCLC): 26200 nM
- GI50 (NCI/ADR-RES ovarian): 2170 nM
- TGI (NCI/ADR-RES ovarian): 16100 nM
- GI50 (T-47D breast): 453 nM
- TGI (T-47D breast): 13900 nM
- GI50 (A549 NSCLC): 506 nM
- TGI (A549 NSCLC): > 58500 nM
- GI50 (SK-MEL-2 melanoma): 422 nM
- TGI (SK-MEL-2 melanoma): 5100 nM
- GI50 (OVCAR-4 ovarian): 395 nM
- TGI (OVCAR-4 ovarian): 19300 nM
- GI50 (NCI-H522 lung): 462 nM
- TGI (NCI-H522 lung): 13000 nM
- GI50 (HS 578T breast): 594 nM
- TGI (HS 578T breast): 17400 nM
- GI50 (BT-549 breast): 370 nM
- TGI (BT-549 breast): 3400 nM
- GI50 (U251 CNS): 451 nM
- TGI (U251 CNS): 16500 nM
- GI50 (OVCAR-3 ovarian): 596 nM
- TGI (OVCAR-3 ovarian): 17100 nM
- GI50 (SF-268 CNS): 957 nM
- TGI (SF-268 CNS): > 46400 nM
- GI50 (MCF7 breast): 354 nM
- TGI (MCF7 breast): 13600 nM
- GI50 (DU-145 prostate): 619 nM
- TGI (DU-145 prostate): > 66700 nM
- GI50 (MDA-MB-435): 412 nM
- TGI (MDA-MB-435): 5710 nM
- GI50 (HL-60(TB) leukemia): 404 nM
- TGI (HL-60(TB) leukemia): 5830 nM
- GI50 (HCT-15 colon): 482 nM
- TGI (HCT-15 colon): 11000 nM
- GI50 (OVCAR-8 ovarian): 414 nM
- TGI (OVCAR-8 ovarian): > 46800 nM
- GI50 (SK-MEL-5 melanoma): 509 nM
- TGI (SK-MEL-5 melanoma): 3310 nM
- GI50 (TK-10 renal): 1050 nM
- TGI (TK-10 renal): 43700 nM
- GI50 (PC-3 prostate): 367 nM
- TGI (PC-3 prostate): 17200 nM
- GI50 (MOLT-4 leukemia): 1110 nM
- TGI (MOLT-4 leukemia): > 44000 nM
- GI50 (LOX IMVI melanoma): 433 nM
- TGI (LOX IMVI melanoma): 12800 nM
- GI50 (SK-MEL-28 melanoma): 987 nM
- TGI (SK-MEL-28 melanoma): 14100 nM
- GI50 (HOP-92 NSCLC): 313 nM
- TGI (HOP-92 NSCLC): 3740 nM
- GI50 (SW-620 colon): 704 nM
- TGI (SW-620 colon): > 46100 nM
- GI50 (UO-31 renal): 1080 nM
- TGI (UO-31 renal): 27500 nM
- GI50 (K-562 leukemia): 402 nM
- TGI (K-562 leukemia): > 100000 nM
- GI50 (SNB-19 CNS): 405 nM
- TGI (SNB-19 CNS): 35200 nM
- GI50 (UACC-62 melanoma): 522 nM
- TGI (UACC-62 melanoma): 6370 nM
- GI50 (HCT-116 colon): 420 nM
- TGI (HCT-116 colon): 11400 nM
- GI50 (RPMI-8226 leukemia): 339 nM
- TGI (RPMI-8226 leukemia): 4760 nM
- GI50 (MALME-3M melanoma): 1010 nM
- TGI (MALME-3M melanoma): 14000 nM
- GI50 (SR leukemia): 892 nM
- TGI (SR leukemia): 26400 nM
- GI50 (UACC-257 melanoma): 356 nM
- TGI (UACC-257 melanoma): 4160 nM
- GI50 (SF-295 CNS): 358 nM
- TGI (SF-295 CNS): 2030 nM
- GI50 (CCRF-CEM leukemia): 411 nM
- TGI (CCRF-CEM leukemia): 14500 nM
- GI50 (NCI-H226 lung): 547 nM
- TGI (NCI-H226 lung): 7970 nM

— PubChem BioAssay (NCI)
